Results: patent US6482982B1, “Halogenated antituberculosis agents” (University of Sciences of Philadelphia, priority 2001, dated 2002)
In brackets after ≈: the same amount, converted by molar mass. Several values for one entry are separate records, joined by “and”; a condition that tells them apart may be missing. Equal values may be shown once. Read-outs that look alike come from different tables or passages of the source.

Tests used:
[1] = test system: Mycobacterium tuberculosis H37Rv (ATCC 27294); experiment: Primary screening of anti-mycobacterial activity (Bactec); format: cell-based; design: % inhibition: concentration or dose not given beside the values; conditions: for MIC: Mycobacterium tuberculosis
M. tuberculosis H37Rv [2] = experiment: Minimum bactericidal concentration (MBC) against H37Rv; format: cell-based, Mycobacterium tuberculosis
[3] = test system: M. tuberculosis Erdman (ATCC 35801); experiment: Killing of M. tuberculosis Erdman in monolayers of mouse bone marrow macrophages
Protocol: Compounds were then tested for killing of M. tuberculosis Erdman (ATCC 35801) in monolayers of mouse bone marrow macrophages.

VERO cells [4] = conditions: for SI (selectivity index, IC50:MIC ratio): IC50 in VERO cells to MIC H37Rv
M. tuberculosis Erdman = experiment: MIC (MABA) against M. tuberculosis Erdman; format: cell-based; conditions: Mycobacterium tuberculosis, Alamar assay
M. tuberculosis H37Rv [5] = experiment: MIC determination by Microplate Alamar Blue Assay (MABA) against H37Rv; format: cell-based, Mycobacterium tuberculosis; conditions: for MIC: Mycobacterium tuberculosis
VERO cells [6] = experiment: cells; conditions: Chlorocebus sabaeus
[7] = preliminary anti-TB test (primary screening), Bactec assay, read-out: MIC
[8] = preliminary anti-TB test (primary screening), Bactec assay
[9] = H37RV, comparison with parent drug, read-out: MIC against M. tuberculosis H37Rv (determined by MABA system)
[10] = Alamar assay, actual MIC at lower concentrations, H37Rv, read-out: MIC
[11] = read-out: IC50 (overt toxicity)
[12] = read-out: IC50 (reference drugs, Comments column)

Q: What does the source list for `CC(=O)Nc1ccc(/C=N/NC(N)=S)c(F)c1` [Compound 17, 4-Acetamido-2-fluorobenzaldehyde thiosemicarbazone]?
A: MIC [1, 7]: < 6.25 µg/mL; Activity [1, 8]: Positive

Q: How did the MIC [1, 7] turn out when `CC(=O)Nc1ccc(/C=N/NC(N)=S)cc1F` [Compound 16, 4-Acetamido-3-fluorobenzaldehyde thiosemicarbazone] was run?
A: Its MIC is under 12.5 µg/mL.

Q: And the “% inhibition” value [1, 8]?
A: Its value is 99% and > 90%.

Q: And the Activity [1, 8]?
A: Its Activity is “Positive”.

Q: What about the H37Rv MBC (M. tuberculosis H37Rv [2]) of the same compound?
A: The H37Rv MBC was 6.25 µg/mL.

Q: And the EC99 ([3]; 99% reduction in colony forming units at seven days, mouse bone marrow macrophages)?
A: The EC99 was over 3.2.

Q: What about the EC90 ([3]; Mycobacterium tuberculosis, ATCC35801|ERDMAN, Bone marrow macrophage, in Mus musculus, 168 h) of the same compound?
A: Its EC90 is 1.7 µg/mL (≈ 6.69 µM).

Q: And the “SI (selectivity index, IC50:MIC ratio)” value (VERO cells [4])?
A: The value was over 312.5.

Q: And the “SI (selectivity index, IC50:MIC ratio)” value (VERO cells [4]; listed as Comp. 16)?
A: Its value is over 312.5.

Q: And the “toxicity (in words)” value (VERO cells [4]; general statement)?
A: The value was “non-toxic”.

Q: What about the MIC (M. tuberculosis Erdman) of the same compound?
A: The MIC was 0.2 µg/mL (≈ 0.787 µM).

Q: What about the “% inh.” value (M. tuberculosis H37Rv [5]; Alamar assay, H37Rv) of the same compound?
A: The value was 99%.

Q: And the MIC (M. tuberculosis H37Rv [5]; [9])?
A: The MIC was at most 0.1 µg/mL.

Q: And the MIC (M. tuberculosis H37Rv [5]; [10])?
A: Its MIC is 0.2 µg/mL (≈ 0.787 µM).

Q: What about the “activity against M. Tuberculosis (in words)” value (M. tuberculosis H37Rv [5]; general statement) of the same compound?
A: The value was “highly active”.

Q: And the IC50 (VERO cells [6]; [11])?
A: The IC50 was over 62.5 µg/mL.

Q: For `Nc1cc(O)c(C(=O)O)cc1F` [Compound 12, 4-Amino-5-fluorosalicylic Acid], which MIC [1] is on record?
A: Its MIC is under 12.5 µg/mL.

Q: What about the “% inhibition” value [1, 8] of the same compound?
A: Its value is 94%.

Q: What about the Activity [1, 8] of the same compound?
A: Its Activity is “Positive”.

Q: What about the H37Rv MBC (M. tuberculosis H37Rv [2]) of the same compound?
A: Its H37Rv MBC is over 200 µg/mL.

Q: What about the “SI (selectivity index, IC50:MIC ratio)” value (VERO cells [4]) of the same compound?
A: The value was over 10.

Q: And the MIC (M. tuberculosis Erdman)?
A: Its MIC is 12.5 µg/mL (≈ 73 µM).

Q: And the “% inh.” value (M. tuberculosis H37Rv [5]; Alamar assay, H37Rv)?
A: The value was 94%.

Q: And the MIC (M. tuberculosis H37Rv [5]; [9])?
A: The MIC was at most 3.13 µg/mL.

Q: What about the MIC (M. tuberculosis H37Rv [5]; [10]) of the same compound?
A: Its MIC is 6.25 µg/mL (≈ 36.5 µM).

Q: And the IC50 (VERO cells [6]; [11])?
A: The IC50 was over 62.5 µg/mL.

Q: `CO[C@H]1/C=C/O[C@@]2(C)Oc3c(C)c(O)c4c(O)c(c(/C=N/N5CCN(C)CC5)c(O)c4c3C2=O)NC(=O)/C(C)=C\C=C\[C@H](C)[C@H](O)[C@@H](C)[C@@H](O)[C@@H](C)[C@H](OC(C)=O)[C@@H]1C` [rifampicin, reference compound] was tested. Which MIC (M. tuberculosis H37Rv [5]; [10]) did it give?
A: The MIC was 0.015 µg/mL (≈ 0.0182 µM).

Q: What about the IC50 (VERO cells [6]; [12]) of the same compound?
A: The IC50 was 77.7 µg/mL (≈ 94.4 µM).

Q: How did the MIC [1, 7] turn out when `COC(=O)c1cc(F)c(NC(C)=O)cc1O` [Compound 11, Methyl 4-acetamido-5-fluorosalicylate] was run?
A: The MIC was over 12.5 µg/mL.

Q: And the “% inhibition” value [1, 8]?
A: Its value is 0%.

Q: What about the Activity [1, 8] of the same compound?
A: The Activity was “Negative”.

Q: thiacetazone [reference compound] was tested. Which “MIC against M. tuberculosis H37Rv (determined by MABA system)” value (M. tuberculosis H37Rv [5]; comparison with parent drug) did it give?
A: The value was over 2.0 µg/mL.

Q: How did the MIC (M. tuberculosis H37Rv [5]; [9]) turn out when `Nc1ccc(C(=O)O)c(O)c1` [p-aminosalicylic acid, reference compound] was run?
A: Its MIC is 1.25 µg/mL (≈ 8.16 µM).

Q: How did the MIC [1, 7] turn out when `CC(=O)Nc1ccc(/C=N/NC(N)=S)cc1Cl` [Compound 25, 4-Acetamido-3-chlorobenzaldehyde thiosemicarbazone] was run?
A: The MIC was under 6.25 µg/mL.

Q: And the Activity [1, 8]?
A: Its Activity is “Positive”.

Q: What does the source list for `CC(=O)Nc1ccc(/C=N/NC(N)=S)cc1I` [Compound 34, 4-Acetamido-3-iodobenzaldehyde thiosemicarbazone]?
A: MIC [1, 7]: < 6.25 µg/mL; Activity [1, 8]: Positive

Q: Which results are given for `CC(=O)Nc1ccc(/C=N/NC(N)=S)cc1Br` [Compound 29, 4-Acetamido-3-bromobenzaldehyde thiosemicarbazone]?
A: MIC [1, 7]: < 6.25 µg/mL; Activity [1, 8]: Positive

Q: `NNC(=O)c1ccncc1` [INH, isoniazid, reference compound] was tested. Which IC50 (VERO cells [6]; [12]) did it give?
A: Its IC50 is 602 µg/mL (≈ 4390 µM).
